Assay results reported in US20030232063A1, “Aminosulfonic acid compounds for promoting desquamation of the skin” (SOCIETE L'OREAL S.A., priority 2000, published 2003).

Test system: corneodesmosine
Experiment: Degradation of corneodesmosines in acetonic powders of stratum corneum (immunoblotting with antibody G36-19, chemiluminescence)
Format: biochemical, human
Conditions: aqueous solution containing 2% of active agent, pH 8.0, 17 h incubation at 30° C., 33 and 46 kD bands, versus control without active agent
Protocol: Method for evaluating desquamation by measuring the degradation of corneodesmosines The ability of aminosulfonic derivatives of formula (I) according to the invention to promote desquamation by degradation of corneodesmosines is studied in this example. […] It is studied by immunoblotting after separation by electrophoresis and transfer onto a membrane. […] The nylon-varnish strips associated with the corneocytes are immersed in 1 ml/cm^2 of acetone in order to detach the corneocytes. The mixture is filtered and then rinsed three times with the same volume of acetone in order to remove all trace of varnish. Finally, the mixture is dried under vacuum: acetonic powders of stratum corneum are thus obtained. The acetonic powders are divided into 1 mg aliquots. 100 μl of the aqueous solutions containing 2% of active agent adjusted to pH 8.0 are added. […] Two incubation times are studied: t=0 and t=17 h. In the latter case, the incubation takes place at 30° C. with stirring. After incubation, the mixtures are centrifuged for 10 minutes at 10 000×g. The supernatant is removed and replaced with 100 μl of 0.0625 M Tris/HCl pH 6.8 Laemmli buffer, 2% SDS, 200 mM DTT, 10% glycerol, which allows the proteins to be extracted. The mixture is boiled for 10 minutes at 100° C. and then ground in a Potter mill. The mixture is centrifuged for 10 minutes at 10 000×g and the supernatant is then collected. It contains the corneodesmosomal proteins. The total proteins are assayed according to the Bradford method (Biorad kit). This allows an adjustment to 0.6 mg/ml of the samples and a real comparison of the treatments. The samples and also a Rainbow (Amersham Pharmacia Biotech) low molecular weight standard at 1⁄3 are separated by electrophoresis on gel containing 12% acrylamide for 30 minutes at 100 V and then for 1 hour at 200 V. After the electrophoresis, the proteins are transferred onto an Immobilon-P membrane (Millipore) for 3 hours at 60 V. The membrane is then incubated for twice 15 minutes in TBS-TL buffer: 25 mM Tris, 0.15M NaCi pH 7.2, 0.05% Tween 20, 0.5% skimmed milk powder, in order to block the non-specific sites. Incubation with the antibody [MUT]-19 at 1/12500 is performed overnight at 4° C. After two rinses of 5 minutes in TBS-TL buffer, the membrane is incubated with a goat anti-mouse IG(H+L) antibody peroxidase conjugate (Biorad) at 1/4000 for 1 hour 30 minutes at ambient temperature. After several rinses of 5 minutes in TBS-TL buffer and then TBS buffer (without milk or Tween), the membrane is incubated for 1 minute in 10 ml of ECL reagent (Amersham Pharmacia Biotech). The chemiluminescence of the corneodesmosine bands is measured with the FluorS Multimager (Biorad). The 33 and 46 kD bands are quantified with the Quantity-one software (Biorad). […] This control takes into account the natural degradation of the corneodesmosines which takes place during the incubation.

Point of comparison: `O=S(=O)(O)CC(O)CN1CCN(CC(O)CS(=O)(=O)O)CC1` (stereo not drawn) [piperazine-1,4-bis(2-hydroxypropanesulfonic acid)], “Percentage increase in the degradation of corneodesmosine” value 63%. Against it:
- O=S(=O)(O)CCN1CCN(CCO)CC1 [4-(2-hydroxyethyl)piperazine-1-ethanesulfonic acid] — higher, 65%
- O=S(=O)(O)CCCN1CCOCC1 [3-Morpholinopropanesulfonic acid, 3-morpholinopropanesulfonic acid] — lower, 39%
- O=S(=O)(O)CCN1CCN(CCS(=O)(=O)O)CC1 [piperazine-1,4-bis(2-ethanesulfonic acid)] — higher, 65%
- NCC(=O)O [Glycine, reference compound] — lower, 51%

Test system: desmoglein (corneodesmosomal protein)
Experiment: not given
Conditions: shown in EP-A2-0,852,949 (Shiseido); cited from earlier work

For `NCC(=O)O` [Glycine, reference compound], the “Effect on the degradation of desmoglein (in words)” value is listed as “promotes the degradation of desmoglein”.
